Substitutions are numbered along the chain they refer to.
Tests used:
Parameters in all cases: species or system chicken
[1] = target: T1, non-glyc-HS2ST H142A (Gallus gallus, UniProt Q76KB1, H142A); experiment: BLI equilibrium binding, non-glyc-HS2ST H142A; settings: BLI saturation binding curves, n = 3, ± standard error of fit
T1 construct: made in house; host or cells: E. coli Origami B (DE3)
T1 sequence (Q76KB1 69-356 H142A limits assumed): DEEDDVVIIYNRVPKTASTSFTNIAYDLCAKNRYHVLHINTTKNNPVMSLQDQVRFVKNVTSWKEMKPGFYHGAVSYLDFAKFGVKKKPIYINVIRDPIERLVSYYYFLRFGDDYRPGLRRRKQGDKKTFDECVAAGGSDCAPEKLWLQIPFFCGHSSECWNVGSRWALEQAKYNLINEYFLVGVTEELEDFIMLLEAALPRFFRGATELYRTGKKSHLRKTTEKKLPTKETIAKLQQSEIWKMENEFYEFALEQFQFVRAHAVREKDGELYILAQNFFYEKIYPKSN
From the text: (§1) To assess whether the inhibitory compounds interact with the active site, point mutations were introduced in non-glyc-HS2ST (Fig. 4a). Four mutants of the catalytic residue (H142A/E/R/K) were created, along with a mutation of the residue that facilitates 2-O-sulfation of IdoA residues (R189A)[27]. Additionally, a negative control (NC) was generated containing multiple mutations of positively charged residues (R189A, R80E, and R184E) that reduced the net charge of each protein monomer by 5. The extent that the mutations affected affinity provided an indication that the ligand had been bound in the active site (Table 1 and Supplementary Fig. 1). While R189A markedly diminished the affinity for all compounds, the NC mutations reduced affinity to immeasurable levels. Removal of the catalytic side chain (H142A) enhanced the affinity of each compound, compared to the WT, by approximately 2–3-fold. Addition of a positive charge at this location (H142K/R) further enhanced the affinity for each compound, so much so that a KD value could be measured even for 2. The H142E mutation diminished the affinity of 5 by half compared to WT, but its effects were less significant for binding to 3 or 4.
(§2) The chicken HS2ST-Maltose Binding Protein (MBP) fusion protein was expressed and purified according to previous studies. The fusion protein was transformed into E. coli Origami B (DE3) cells, cultured at 37 °C until OD600 reached 0.5, then induced with isopropyl-β-D-thiogalactopyranoside and allowed to grow overnight at 20 °C. Cells were sonicated, followed by a two-step purification procedure. Whole-cell supernatant was passed through an amylose column with Tris buffer (25 mM Tris, 500 mM NaCl, pH 7.5). An elution buffer consisted of Tris Buffer with 40 mM Maltose. The amylose column eluent was concentrated and loaded on a Superdex 200 Increase 10/300 GL with PBS buffer (10 mM sodium phosphate, 150 mM NaCl, pH 7.8) to separate trimeric protein from aggregate and independent MBP (Supplementary Fig. 4). All reported mutations formed homotrimeric complexes according to the SEC profiles, including the negative control (NC = R189A/R80E/R184E). Protein concentration was assessed via UV at 280 nm (MW of trimer ~210 KDa, extinction coefficient ~119,000 M^−1 cm^−1 according to ExPASy ProtParam webtool[56]). The trimeric protein preparation was adjusted to 5% glycerol and stored at −20 °C until use. Additional non-glyc-HS2ST constructs were created with the Q5® Mutagenesis kit (New England Biolabs Inc.; cat. # E0554S) and sequenced at the Georgia Genomics Facility at the University of Georgia.
(§3) The Octet® RED96 system (FortéBio Inc.) was employed to detect the affinity of the enzymes for specific HS targets. […]

[2] = target: T2, non-glyc-HS2ST H142R (Gallus gallus, UniProt Q76KB1, H142R); experiment: BLI equilibrium binding, non-glyc-HS2ST H142R; settings: BLI saturation binding curves, n = 3, ± standard error of fit
T2 construct: made in house; host or cells: E. coli Origami B (DE3)
T2 sequence (Q76KB1 69-356 H142R limits assumed): T1 sequence (Q76KB1 69-356 H142A limits assumed) with A74R
From the text: as §1, §2, §3

[3] = target: T3, non-glyc-HS2ST H142E (Gallus gallus, UniProt Q76KB1, H142E); experiment: BLI equilibrium binding, non-glyc-HS2ST H142E; settings: for Kd: BLI saturation binding curves, n = 3, ± standard error of fit, — = response too weak to fit
T3 construct: made in house; host or cells: E. coli Origami B (DE3)
T3 sequence (Q76KB1 69-356 H142E limits assumed): T1 sequence (Q76KB1 69-356 H142A limits assumed) with A74E
From the text: as §1, §2
The Octet® RED96 system (FortéBio Inc.) was employed to detect the affinity of the enzymes for specific HS targets. Due to the small size of the glycan and the deep HS2ST binding cavity, the glycan and protein were treated as ligand and analyte, respectively. Varyingly sulfated HS fragments conjugated to biotin linkers were purchased from Glycan Therapeutics Inc. with purities greater than 93% according to HPLC (sequences located in Supplementary Table 1). The glycans were immobilized onto streptavidin (SA) labeled biosensors (FortéBio; cat. #18–5019) at 0.5 µg/mL. Experiments were performed at 25 °C in PBS Buffer (10 mM sodium phosphate, 150 mM NaCl, pH 7.8) with a final concentration of 1X Pall Kinetics buffer (FortéBio Inc; cat. #18–1092). Fresh biosensors and protein samples were used for each measurement (no regeneration step). […]

Row | Substance | Kd [1] [nM] | Kd [2] [nM] | Kd [3] [nM] | Diminution of affinity by H142E compared to WT ([3]; non-glyc-HS2ST H142E versus WT, BLI)
1 | GlcNS-GlcA-GlcNS-IdoA2S-GlcNS-GlcA~ [Compound 2] | 460 ± 91 | 136 ± 20 | > 500 | 
2 | GlcNS6S-GlcA-GlcNS3S6S-IdoA2S-GlcNS6S-GlcA~ [Compound 4] | 10 ± 2 | 10 ± 1 | 19 ± 3 | 
3 | GlcNS6S-GlcA-GlcNS6S-IdoA2S-GlcNS6S-GlcA~ [Compound 3] | 20 ± 3 | 12 ± 1 | 41 ± 4 | 
4 | GlcNS6S-GlcA-GlcNS6S-GlcA-GlcNS6S-GlcA~ [Compound 5] | 25 ± 2 | 13 ± 1 | 140 ± 11 | half

— PMC6081452, “Downstream Products are Potent Inhibitors of the Heparan Sulfate 2-O-Sulfotransferase” (Scientific Reports, 2018)
